# Measured values as given in ChEMBL document CHEMBL6074675, “4-Substituted-2-Thiazole Amides as Viral Replication Inhibitors of Alphaviruses” (J Med Chem, 2024).
# pEC50: −log10 of the molar value. The source made the active and inactive calls. The rule behind the calls is not given here.
# How the values were obtained:
# Chikungunya virus [1] = experiment: Antiviral activity against Chikungunya virus S27 infected in golden hamster BHK-21 cells assessed as inhibition of virus-induced cytopathic effect measured after 4 days by microscopic analysis; assay type: functional, organism-based; conditions: S27, BHK-21, 96 h
# Chikungunya virus [2] = experiment: Antiviral activity against Chikungunya virus 181/25 infected in human NHDF cells assessed as inhibition of viral translation by measuring decrease in E2 protein expression at 10 uM cells treated with compound prior to infection and measured at 12 hrs post-infection by western blot analysis; assay type: functional, organism-based
# [3] = Cytotoxicity against human NHDF cells assessed as reduction in cell viability incubated for 24 hrs by CellTiter Glo luminescence assay; assay type: toxicity, cell-based
# Homo sapiens [4] = species on record: Homo sapiens; experiment: Inhibition of MAPK (unknown origin) upto 10 uM relative to control
# Zika virus [5] = experiment: Antiviral activity against Zika virus PRABC59 infected in human HEK293 cells assessed as log reduction of virus titer at 10 uM measured at 3 days post-infection by focus-forming assay; assay type: functional; conditions: time 3 day
# [6] = Half life in C57BL/6 mouse at 40 mg/kg, sc; assay type: ADME, organism-based; conditions: in vivo
# Chikungunya virus [7] = experiment: Antiviral activity against Chikungunya virus 181/25 infected in human NHDF cells assessed as inhibition of viral RNA synthesis by measuring 49S genomic RNA accumulation at 10 uM treated with cells for 1 hr prior to infection and measured at 12 hrs post-infection by DIG-labeled probe based Northern blot analysis; assay type: functional, organism-based; conditions: time 13.0 hrs
# West Nile virus [8] = experiment: Antiviral activity against West Nile virus NY99 infected in human HEK293 cells assessed as reduction of virus load measured at 3 days post-infection by focus-forming assay; assay type: functional; conditions: NY99, HEK293, 72 h, time 3 day
# [9] = Bioavailability in C57BL/6 mouse at 40 mg/kg, ip; assay type: ADME, organism-based; conditions: in vivo
# Homo sapiens [10] = species on record: Homo sapiens; experiment: Inhibition of Numb-asociated kinase (unknown origin) upto 10 uM relative to control
# [11] = AUC in C57BL/6 mouse at 1 mg/kg, iv; assay type: ADME, organism-based; conditions: in vivo
# [12] = Half life in C57BL/6 mouse at 1 mg/kg, iv; assay type: ADME, organism-based; conditions: in vivo
# Chikungunya virus [13] = experiment: Antiviral activity against Chikungunya virus 181/25 infected in human NHDF cells assessed as inhibition of viral entry at 10 uM pretreated with virus for 2 hrs prior to infection and measured at 24 hrs post-infection by plaque assay; assay type: functional, organism-based; conditions: time 26.0 hrs
# [14] = Half life in C57BL/6 mouse at 40 mg/kg, ip; assay type: ADME, organism-based; conditions: in vivo
# Homo sapiens [15] = species on record: Homo sapiens; experiment: Inhibition of CDK (unknown origin) upto 10 uM relative to control
# Heme oxygenase 1 = target: T1, Heme oxygenase 1 (Homo sapiens, UniProt P09601); experiment: Inhibition of HO-1 (unknown origin)
# T1 sequence (P09601 whole entry): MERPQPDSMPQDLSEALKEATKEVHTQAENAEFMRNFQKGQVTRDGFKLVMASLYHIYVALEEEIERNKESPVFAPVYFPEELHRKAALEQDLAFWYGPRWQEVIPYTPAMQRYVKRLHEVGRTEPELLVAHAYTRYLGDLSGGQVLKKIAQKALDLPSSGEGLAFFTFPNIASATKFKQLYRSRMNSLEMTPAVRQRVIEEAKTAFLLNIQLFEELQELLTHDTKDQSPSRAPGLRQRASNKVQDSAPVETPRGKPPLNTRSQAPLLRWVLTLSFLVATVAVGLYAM
# Chikungunya virus [16] = experiment: Antiviral activity against Chikungunya virus 181/25 infected in human NHDF cells assessed as inhibition of viral RNA synthesis by measuring 26S subgenomic RNA accumulation at 10 uM treated with cells for 1 hr prior to infection and measured at 12 hrs post-infection by DIG-labeled probe based Northern blot analysis; assay type: functional, organism-based; conditions: time 13.0 hrs
# [17] = target: Epidermal growth factor receptor (Homo sapiens) (UniProt P00533); experiment: Inhibition of EGFR (unknown origin) upto 10 uM relative to control
# Epidermal growth factor receptor (Homo sapiens), sequence (P00533 whole entry): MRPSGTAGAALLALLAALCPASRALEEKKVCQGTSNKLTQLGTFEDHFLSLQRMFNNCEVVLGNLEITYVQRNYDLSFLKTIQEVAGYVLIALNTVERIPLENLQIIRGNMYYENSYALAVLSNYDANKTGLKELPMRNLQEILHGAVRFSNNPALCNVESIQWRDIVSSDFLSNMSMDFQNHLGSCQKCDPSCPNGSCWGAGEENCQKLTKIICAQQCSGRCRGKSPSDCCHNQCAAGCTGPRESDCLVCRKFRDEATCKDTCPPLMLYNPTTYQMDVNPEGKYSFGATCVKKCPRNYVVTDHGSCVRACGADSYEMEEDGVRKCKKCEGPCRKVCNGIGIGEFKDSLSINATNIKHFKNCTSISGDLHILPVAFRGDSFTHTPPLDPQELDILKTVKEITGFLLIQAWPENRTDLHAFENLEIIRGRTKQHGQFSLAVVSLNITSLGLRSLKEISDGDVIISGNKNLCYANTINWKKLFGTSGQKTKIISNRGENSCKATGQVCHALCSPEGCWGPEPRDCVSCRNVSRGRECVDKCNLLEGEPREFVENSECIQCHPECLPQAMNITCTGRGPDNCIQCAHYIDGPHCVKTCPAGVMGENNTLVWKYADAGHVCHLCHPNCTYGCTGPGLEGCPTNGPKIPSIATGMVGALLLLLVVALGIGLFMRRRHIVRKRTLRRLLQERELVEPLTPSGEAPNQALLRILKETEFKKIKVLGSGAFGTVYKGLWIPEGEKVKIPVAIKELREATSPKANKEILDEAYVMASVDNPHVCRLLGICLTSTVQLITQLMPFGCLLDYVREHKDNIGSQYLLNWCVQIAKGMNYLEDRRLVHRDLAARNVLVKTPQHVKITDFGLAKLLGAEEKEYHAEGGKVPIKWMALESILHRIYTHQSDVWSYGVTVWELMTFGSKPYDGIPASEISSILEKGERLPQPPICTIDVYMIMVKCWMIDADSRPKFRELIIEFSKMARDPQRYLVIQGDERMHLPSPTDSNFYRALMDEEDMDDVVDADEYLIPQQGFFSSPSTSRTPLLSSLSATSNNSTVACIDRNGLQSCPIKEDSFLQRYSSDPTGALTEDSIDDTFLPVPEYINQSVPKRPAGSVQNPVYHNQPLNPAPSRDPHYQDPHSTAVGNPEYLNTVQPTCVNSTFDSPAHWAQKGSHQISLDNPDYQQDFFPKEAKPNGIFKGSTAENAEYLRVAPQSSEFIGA
# [18] = Cytotoxicity against human HEK293 cells; assay type: toxicity, cell-based
# Chikungunya virus [19] = experiment: Antiviral activity against Chikungunya virus 181/25 infected in C57BL/6J mouse assessed as reduction in viral load in contralateral ankle at 80 mg/kg, ip bid for 3 days infected with virus at 2 hrs after first compound treatment and measured at 12 hrs post-final treatment; assay type: functional, organism-based; conditions: time 3.0 day
# [20] = Kinetic solubility of the compound in simulated intestinal fluid at pH 7.5 by LC-MS analysis; assay type: physicochemical; conditions: read-out: Kinetic_solubility
# Chikungunya virus [21] = experiment: Antiviral activity against Chikungunya virus 181/25 infected in C57BL/6J mouse assessed as reduction in footpad swelling at 80 mg/kg, ip bid for 3 days infected with virus at 2 hrs after first compound treatment and measured at 12 hrs post-final treatment by digital caliper analysis; assay type: functional, organism-based; conditions: time 3.0 day
# [22] = target: Dihydroorotate dehydrogenase (quinone), mitochondrial (Homo sapiens) (UniProt Q02127); experiment: Inhibition of human DHODH
# Dihydroorotate dehydrogenase (quinone), mitochondrial (Homo sapiens), sequence (Q02127 whole entry): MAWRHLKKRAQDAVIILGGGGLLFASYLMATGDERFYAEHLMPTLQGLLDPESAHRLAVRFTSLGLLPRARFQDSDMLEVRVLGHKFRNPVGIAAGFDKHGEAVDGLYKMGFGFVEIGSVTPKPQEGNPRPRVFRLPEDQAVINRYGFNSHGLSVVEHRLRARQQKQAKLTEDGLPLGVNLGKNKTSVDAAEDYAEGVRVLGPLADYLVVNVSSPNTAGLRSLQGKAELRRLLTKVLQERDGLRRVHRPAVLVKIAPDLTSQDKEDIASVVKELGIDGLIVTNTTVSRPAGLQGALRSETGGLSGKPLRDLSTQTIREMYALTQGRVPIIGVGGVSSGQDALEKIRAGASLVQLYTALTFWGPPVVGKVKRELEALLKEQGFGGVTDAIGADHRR
# [23] = system: Venezuelan equine encephalitis virus; experiment: Antiviral activity against VEEV TC-83 infected in human NHDF cells assessed as reduction of virus titer treated with cells at 1 hr prior to infection and measured at 24 hrs post-infection by plaque assay; assay type: functional; conditions: TC-83, NHDF, time 25 hrs
# Chikungunya virus [24] = experiment: Antiviral activity against Chikungunya virus 181/25 infected in C57BL/6J mouse assessed as reduction in viral load in ipsilateral ankle at 80 mg/kg, ip bid for 3 days infected with virus at 2 hrs after first compound treatment and measured at 12 hrs post-final treatment; assay type: functional, organism-based; conditions: time 3.0 day
# [25] = Half life of the compound in mouse liver microsomes in presence of NADPH by LC-MS/MS analysis; assay type: ADME, Microsome
# [26] = Cmax in C57BL/6 mouse at 40 mg/kg, sc; assay type: ADME, organism-based; conditions: in vivo
# West Nile virus [27] = experiment: Antiviral activity against West Nile virus NY99 infected in human HEK293 cells assessed as log reduction of virus titer at 10 uM measured at 3 days post-infection by focus-forming assay; assay type: functional; conditions: time 3 day
# Chikungunya virus [28] = experiment: Antiviral activity against Chikungunya virus 181/25 infected in C57BL/6J mouse assessed as reduction in viral dissemination to quadriceps at 80 mg/kg, ip bid for 3 days infected with virus at 2 hrs after first compound treatment and measured at 12 hrs post-final dose by RT-qPCR analysis; assay type: functional, organism-based; conditions: time 3.0 day
# [29] = Cytotoxicity against human NHDF cells deficient of IRF3 assessed as reduction in cell viability incubated for 72 hrs by CellTiter Glo luminescence assay; assay type: toxicity, cell-based
# [30] = AUC in C57BL/6 mouse at 40 mg/kg, po; assay type: ADME, organism-based; conditions: in vivo
# Chikungunya virus [31] = experiment: Antiviral activity against Chikungunya virus 181/25 infected in C57BL/6J mouse assessed as reduction in viral dissemination to spleen at 80 mg/kg, ip bid for 3 days infected with virus at 2 hrs after first compound treatment and measured at 12 hrs post-final dose by RT-qPCR analysis; assay type: functional, organism-based; conditions: time 3.0 day
# Chikungunya virus [32] = experiment: Antiviral activity against Chikungunya virus 181/25 infected in human NHDF cells assessed as inhibition of infectious virus production at 10 uM treated with infectious cells at 6 hrs post-infection and measured at 48 hrs post-infection following culturing on Vero cells by limiting dilution plaque assay; assay type: functional, organism-based; conditions: time 42.0 hrs
# Zika virus [33] = experiment: Antiviral activity against Zika virus PRABC59 infected in human HEK293 cells assessed as reduction of virus load measured at 3 days post-infection by focus-forming assay; assay type: functional; conditions: PRABC59, HEK293, 72 h, time 3 day
# [34] = AUC in C57BL/6 mouse at 40 mg/kg, sc; assay type: ADME, organism-based; conditions: in vivo
# [35] = AUC in C57BL/6 mouse at 40 mg/kg, ip; assay type: ADME, organism-based; conditions: in vivo
# [36] = Bioavailability in C57BL/6 mouse at 40 mg/kg, sc; assay type: ADME, organism-based; conditions: in vivo
# [37] = Octanol/PBS buffer distribution coefficient, logD of the compound at pH 7.5 by LC-MS analysis; assay type: physicochemical
# dengue virus type 2 [38] = experiment: Antiviral activity against Dengue virus 2 NGC infected in human HEK293 cells assessed as log reduction of virus titer at 10 uM measured at 3 days post-infection by focus-forming assay; assay type: functional; conditions: time 3 day
# Homo sapiens [39] = species on record: Homo sapiens; experiment: Inhibition of PI3K/Akt/mTOR (unknown origin) upto 10 uM relative to control
# [40] = Half life in C57BL/6 mouse at 40 mg/kg, po; assay type: ADME, organism-based; conditions: in vivo
# [41] = Half life of the compound in human liver microsomes in presence of NADPH by LC-MS/MS analysis; assay type: ADME, Microsome
# Chikungunya virus [42] = experiment: Antiviral activity against Chikungunya virus 181/25 infected in human NHDF cells assessed as log reduction of virus titer at 10 uM treated with cells at 1 hr prior to infection and measured at 24 hrs post-infection by plaque assay; assay type: functional; conditions: time 25 hrs
# [43] = system: Venezuelan equine encephalitis virus; experiment: Antiviral activity against VEEV TC-83 infected in human NHDF cells assessed as log reduction of virus titer at 10 uM treated with cells at 1 hr prior to infection and measured at 24 hrs post-infection by plaque assay; assay type: functional; conditions: time 25 hrs
# dengue virus type 2 [44] = experiment: Antiviral activity against Dengue virus 2 NGC infected in human HEK293 cells assessed as reduction of virus load measured at 3 days post-infection by focus-forming assay; assay type: functional; conditions: HEK293, 72 h, time 3 day
# [45] = Oral bioavailability in C57BL/6 mouse at 40 mg/kg; assay type: ADME, organism-based; conditions: in vivo
# [46] = Cmax in C57BL/6 mouse at 40 mg/kg, po; assay type: ADME, organism-based; conditions: in vivo
# [47] = Cmax in C57BL/6 mouse at 40 mg/kg, ip; assay type: ADME, organism-based; conditions: in vivo
compound,measurement,setting,value
O=C(CCN1CCOCC1)c1c(CO)c2ccccc2[nH]c1=O,pEC50,Chikungunya virus [1],5.66
CSc1ncccc1C(=O)Nc1nc(-c2cccc(Nc3ccc(C#N)cc3)c2)cs1,Activity,Chikungunya virus [2],Active
same,CC50 at 24 h,[3],> 30000 nM
same,inhibition,Homo sapiens [4],< 30%
same,log(activity),Zika virus [5],3.5
same,half-life,[6],5.7 h
same,Activity,Chikungunya virus [7],inactive
same,EC90,West Nile virus [8],750 nM
same,bioavailability,[9],91%
same,inhibition,Homo sapiens [10],< 30%
same,AUC,[11],821 ng·h/mL
same,half-life,[12],1.78 h
same,Activity,Chikungunya virus [13],inactive
same,half-life,[14],3.52 h
same,inhibition,Homo sapiens [15],< 30%
same,pEC50,Heme oxygenase 1,< 4.30
same,Activity,Chikungunya virus [16],inactive
same,inhibition,[17],< 30%
same,CC50,[18],> 30000 nM
same,Activity,Chikungunya virus [19],inactive
same,solubility kinetic,[20],< 1 µM
same,Activity,Chikungunya virus [21],inactive
same,inhibition,[22],Active
same,EC90,[23],190 nM
same,Activity,Chikungunya virus [24],inactive
same,half-life,[25],1.23 h
same,Cmax,[26],142 ng/mL
same,log(activity),West Nile virus [27],2.6
same,Activity,Chikungunya virus [28],Active
same,CC50 at 72 h,[29],> 30000 nM
same,AUC,[30],15300 ng·h/mL
same,Activity,Chikungunya virus [31],Active
same,Activity,Chikungunya virus [32],Active
same,EC90,Zika virus [33],170 nM
same,AUC,[34],1520 ng·h/mL
same,AUC,[35],30600 ng·h/mL
same,bioavailability,[36],5%
same,logD,[37],> 4.04
same,log(activity),dengue virus type 2 [38],2.6
same,inhibition,Homo sapiens [39],< 30%
same,half-life,[40],2.38 h
same,half-life,[41],0.383 h
same,log(activity),Chikungunya virus [42],8.7
same,log(activity),[43],5.9
same,EC90,dengue virus type 2 [44],120 nM
same,bioavailability,[45],45%
same,Cmax,[46],2100 ng/mL
same,Cmax,[47],2460 ng/mL
